Assay: Accelerated storage test: decomposition of ascorbic acid in the composition after two months at 45° C., HPLC
Type: physicochemical
Conditions: formulated in the presence of Lubrizol 5603, compared with conventional emulsifier; even in the presence of oxygen
Procedure: The aim of this test is to study the decomposition of an oxidation-sensitive hydrophilic active principle in a composition, after storage for two months at 45° C.
The degree of decomposition measured is given by the ratio: (C0-C2 months)/C0 with C0 being the concentration of ascorbic acid at t=0 and C2 months being the concentration of ascorbic acid at t=2 months.
The concentration of ascorbic acid is determined by the HPLC technique (Merck LaChrom system). The analytical conditions are as follows: • Column: Lichrosphere 100 RP18 (250 mm) • Eluant: 0.1M phosphate buffer, pH 2.1 • Flow rate: 1 ml/min • Detection at 257 nm. • Dilution of the sample such that the concentration of ascorbic acid is between 0.05 and 1 mg/ml.
The test was carried out with the composition Example 1, and with the composition of Comparative Example 1 which contains, instead of the polymer according to the invention, a conventionally used emulsifier, cyclopentasiloxane and PEG/PPG-18/18 dimethicone.

SMILES: O=C1O[C@H]([C@@H](O)CO)C(O)=C1O [ascorbic acid]
- Increase of stability of the ascorbic acid: 50%
